The results in this text go back to patent publication US20050148044A1 (priority 1999, published 2005).

Where “and” joins values, the source holds several entries; their conditions need not be identical. Identical values can stand only once. Entries after “also recorded” stand apart in the source; their conditions may differ.

In assay [1] the test system is C. perfringens. Type of assay: cell-based, Clostridium perfringens.
Assay [2] concerns C. perfringens. Type of assay: cell-based, Clostridium perfringens. The source holds these as a separate data set.
Assay [3] relates to C. butyricum. Type of assay: cell-based, Clostridium butyricum.
Assay [4] has as its system E. coli. Type of assay: cell-based.
In assay [5] the test system is B. fragilis. Format: cell-based, Bacteroides fragilis.
Assay [6] has as its system Citrobacter. Format: cell-based.
In assay [7] the test system is Bifidobacterium bifidum. Format: cell-based. Also on record: key to intensity of the halo / reduction in the microorganisms: Ø: without halo; + → +++: intensity of the halo; + → +++: intensity of the halo; + → +++: intensity of the halo; ↓: reduction in the microorganisms (here by 90%).
The test system of assay [8] is B. longum. Format: cell-based. Also on record: key: Ø: without halo; + → +++: intensity of the halo; + → +++: intensity of the halo; + → +++: intensity of the halo; ↓: reduction in the microorganisms (here by 90%).
The subject of assay [9] is B. dentium. Format: cell-based. More on the design: key: Ø: without halo; + → +++: intensity of the halo; + → +++: intensity of the halo; + → +++: intensity of the halo; ↓: reduction in the microorganisms (here by 90%).
Assay [10] concerns C. butyricum. Type of assay: cell-based, Clostridium butyricum. The source holds these as a separate data set.
The subject of assay [11] is Citrobacter. Type of assay: cell-based. This is another data set of the same source.
For assay [12], the system named is E. coli. Format: cell-based. The source holds these as a separate data set.
Assay [13] concerns Bacteroides fragilis. Format: cell-based.

Turning to `OC[C@H]1O[C@@H](Oc2c[nH]c3ccc(Br)c(Cl)c23)[C@H](O)[C@@H](O)[C@@H]1O` [X-glu], the “colors due to the hydrolysis of the substrate” value (“colors due to the hydrolysis” for short) in assay [1] is “difficult to see”.

For `N[C@@H]1CON=C1O` [cycloserine], the “growth in the presence of antibiotic” value in [2], in assay [3], in assay [4], in assay [5] and in assay [6] was “grow” each time.

For ammoniacal iron citrate [AIC], in assay [7], the bacterial count entry is “reduction in the number of microorganisms”; the “halo around the colonies” value is given as “more intense; also recorded: became visible”; the “intensity of the halo” value was “+ and ++ and +++↓”; the “reduction in the microorganisms” value was “+++↓”. In assay [8], the “intensity of the halo” value is “+ and ++”. The “intensity of the halo” value in assay [9] is “+ and ++”.

As for `O=P(O)(O)Oc1c[nH]c2ccc(Br)c(Cl)c12` [X-Phos], the “color of the colonies” value in assay [1] is “greenish cream-colored with a slight blue halo”; in assay [10], “cream-colored; also recorded: cream-colored with a very light halo near the colony and then blue at the periphery”; in [12] it was “very light greenish cream-colored; also recorded: darker”; in assay [13], “cream-colored when they are isolated, blue in group; also recorded: deep cream-colored, light brown”. Further, the “relative intensity of the color of the colonies (3 to 0)” value (“relative intensity” for short) is 2 in assay [1]; 2 in assay [10]; 3 in assay [11]; 2 and 3 in [12]; 1 and 2 in assay [13]. In addition, the “growth of the colonies” value in assay [10] is given as “did not grow”.

`CC(=O)N[C@H]1[C@H](Oc2c[nH]c3ccc(Br)c(Cl)c23)O[C@H](CO)[C@@H](O)[C@@H]1O` [X-acglmn]: the “color of the colonies” value in [1] is “cream-colored; also recorded: very slightly greenish cream-colored”; in [11], “cream-colored”; in assay [12], “cream-colored”; in [13], “cream-colored”.

On to `OC[C@@H]1O[C@@H](Oc2c[nH]c3cc(Cl)c(Br)cc23)[C@@H](O)[C@@H](O)[C@H]1O` [Mag-Gal], for which the “relative intensity” value is 3 in [1]; 2 in assay [10]; 1 and 2 in assay [11]; 2 in assay [12]; 1 in [13]. Moreover, the “growth of the colonies” value in assay [10] is on record as “did not grow”. Also, the “color of the colonies” value in assay [11] was “cream-colored and pink”.

Take `O=P(O)(O)Oc1c[nH]c2cc(Cl)c(Br)cc12` [Mag-Phos]: in assay [1], the “colors due to the hydrolysis” value is on record as “difficult to see”. The “relative intensity” value is 3 and 2 in assay [1]; 2 and 3 in [11]; 2 and 3 in assay [12]. The “color of the colonies” value is on record as “cream-colored (darker center); also recorded: pink (pink agar)” in [11], “cream-colored (darker center); also recorded: pink (pink agar)” in [12] and “cream-pink; also recorded: cream-colored with a brownish halo” in assay [13].

For `O=C(O)[C@H]1O[C@@H](Oc2c[nH]c3ccc(Br)c(Cl)c23)[C@H](O)[C@@H](O)[C@@H]1O` [X-glucu], the “colors due to the hydrolysis” value in [1] is on record as “difficult to see”.

`OC[C@H]1O[C@H](Oc2c[nH]c3cc(Cl)c(Br)cc23)[C@H](O)[C@@H](O)[C@H]1O` [Mag-α-Gal]: the “color of the colonies” value was “cream-colored and pink” in assay [1]; “cream-colored; also recorded: darker or light cream-colored” in [10]; “cream-colored; also recorded: darker or light cream-colored” in assay [11]; “darker or light cream-colored; also recorded: cream-colored” in [12].

For the compound “5-bromo-4-chloro-3-indolyl-β-D-galactopyranoside [X-Gal]”, in [1], the “colors due to the hydrolysis” value is on record as “difficult to see”. Also, the “halos around the colonies” value in assay [1] is “blue-gray halos”. In addition, the “relative intensity” value in assay [1] came out at 3; in assay [12] it was 3; in assay [13], 2. In addition, the figures for the “color of the colonies” value in assay [11] and in assay [12] were “cream-colored” and “all blue”, respectively.
